The source of these data is publication PMC4208292 (Bioorganic & medicinal chemistry letters, 2012).

As usually defined, the clearance is a measure of how efficiently the substance is removed, as volume per time. A high value points to a high capacity for elimination. As a reminder, the inhibition is the drop in the measured response relative to a control, in per cent. As usually defined, the IC50 is the concentration at which inhibition is half-maximal. Higher therefore signals a need for much substance.

Entries after “also recorded” stand apart in the source; their conditions may differ.

One series has as its target GFP-LRRK2[A2016T] (Homo sapiens, UniProt Q5S007, A2016T). The series can be described thus: Ser910/Ser935 phosphorylation immunoblot in stably transfected HEK293 cells. The following applies: 90 min.
A further series has as its target ALK (Homo sapiens, UniProt Q9UM73). The series can be described thus: Kinase-binding assay. The following applies: 10 μM; KINOMEscan profile.
Another series has as its target T1, FLT3(D835Y) (Homo sapiens, UniProt P36888, D835Y).
T1 sequence (P36888 27-993 D835Y): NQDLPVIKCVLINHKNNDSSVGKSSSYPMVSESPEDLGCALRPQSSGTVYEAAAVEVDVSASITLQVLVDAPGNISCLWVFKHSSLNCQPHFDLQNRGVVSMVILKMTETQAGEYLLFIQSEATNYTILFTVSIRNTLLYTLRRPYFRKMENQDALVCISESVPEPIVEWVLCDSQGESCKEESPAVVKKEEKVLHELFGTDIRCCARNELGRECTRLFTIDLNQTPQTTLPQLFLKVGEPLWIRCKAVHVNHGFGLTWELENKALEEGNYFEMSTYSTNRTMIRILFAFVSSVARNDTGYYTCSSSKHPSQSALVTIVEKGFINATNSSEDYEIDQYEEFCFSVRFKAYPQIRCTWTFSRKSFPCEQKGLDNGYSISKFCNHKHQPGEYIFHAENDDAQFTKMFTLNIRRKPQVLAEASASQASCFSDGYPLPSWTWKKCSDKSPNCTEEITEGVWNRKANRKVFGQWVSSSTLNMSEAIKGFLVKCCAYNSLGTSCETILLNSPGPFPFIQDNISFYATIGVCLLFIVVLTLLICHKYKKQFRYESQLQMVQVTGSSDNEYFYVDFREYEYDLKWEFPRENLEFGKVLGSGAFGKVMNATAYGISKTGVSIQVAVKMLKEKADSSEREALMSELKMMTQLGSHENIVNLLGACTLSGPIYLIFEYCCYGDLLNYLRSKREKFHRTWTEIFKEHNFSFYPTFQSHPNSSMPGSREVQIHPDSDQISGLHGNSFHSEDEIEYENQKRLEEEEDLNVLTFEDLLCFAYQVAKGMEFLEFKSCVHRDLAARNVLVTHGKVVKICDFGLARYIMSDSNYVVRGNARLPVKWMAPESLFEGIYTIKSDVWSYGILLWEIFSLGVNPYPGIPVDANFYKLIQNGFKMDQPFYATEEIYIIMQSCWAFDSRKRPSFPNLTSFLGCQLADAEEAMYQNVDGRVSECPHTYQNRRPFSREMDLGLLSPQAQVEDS
The series can be described thus: Kinase-binding assay. The note with it: 10 μM; KINOMEscan profile.

The nature of series [1]: Pharmacokinetic profile in mice. It counts as in vivo. The following applies: male, Swiss Albino, mouse, brain, iv, 1 mg/kg.
A further series has as its target smMLCK (Homo sapiens, UniProt Q15746). The series is described as follows: Radioactivity-based enzymatic kinase panel. It counts as biochemical.
Series [2] deals with T2, wild-type LRRK2 (GST-LRRK2(1326–2517)) (Homo sapiens, UniProt Q5S007).
T2 sequence (Q5S007 1326-2517): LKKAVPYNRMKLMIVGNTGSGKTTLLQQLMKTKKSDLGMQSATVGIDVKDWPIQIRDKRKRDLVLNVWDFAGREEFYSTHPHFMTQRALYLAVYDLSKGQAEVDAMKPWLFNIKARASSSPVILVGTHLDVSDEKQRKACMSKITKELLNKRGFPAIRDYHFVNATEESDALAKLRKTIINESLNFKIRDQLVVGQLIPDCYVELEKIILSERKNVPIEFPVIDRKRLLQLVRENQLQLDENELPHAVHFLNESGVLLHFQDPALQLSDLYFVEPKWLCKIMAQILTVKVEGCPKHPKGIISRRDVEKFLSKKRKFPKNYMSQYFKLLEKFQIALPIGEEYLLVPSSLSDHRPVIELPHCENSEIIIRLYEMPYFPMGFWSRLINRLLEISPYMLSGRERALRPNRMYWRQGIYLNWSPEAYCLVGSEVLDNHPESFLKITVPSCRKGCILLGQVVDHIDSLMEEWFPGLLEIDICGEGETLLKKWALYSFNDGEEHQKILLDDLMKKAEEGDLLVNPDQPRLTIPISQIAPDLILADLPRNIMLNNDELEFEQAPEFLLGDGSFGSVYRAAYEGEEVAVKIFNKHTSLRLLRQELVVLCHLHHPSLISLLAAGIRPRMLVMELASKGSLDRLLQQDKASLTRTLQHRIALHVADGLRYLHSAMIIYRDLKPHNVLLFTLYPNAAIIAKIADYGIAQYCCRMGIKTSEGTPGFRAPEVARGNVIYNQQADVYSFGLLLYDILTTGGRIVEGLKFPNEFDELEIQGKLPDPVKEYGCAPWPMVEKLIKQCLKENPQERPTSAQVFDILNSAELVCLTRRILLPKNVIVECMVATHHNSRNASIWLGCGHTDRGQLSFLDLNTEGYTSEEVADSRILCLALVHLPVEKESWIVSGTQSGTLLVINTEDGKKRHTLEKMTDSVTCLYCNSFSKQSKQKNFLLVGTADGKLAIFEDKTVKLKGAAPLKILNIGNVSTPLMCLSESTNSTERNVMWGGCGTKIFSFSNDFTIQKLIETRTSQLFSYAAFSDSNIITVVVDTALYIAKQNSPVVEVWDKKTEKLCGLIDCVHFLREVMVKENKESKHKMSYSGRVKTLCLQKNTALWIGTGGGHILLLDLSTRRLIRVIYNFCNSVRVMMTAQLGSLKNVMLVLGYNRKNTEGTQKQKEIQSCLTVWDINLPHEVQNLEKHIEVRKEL
The series can be described thus: LRRK2 enzyme activity assay.

The target in another series is LRRK2 (Mus musculus, UniProt Q5S006). The series can be described thus: Pharmacodynamic study of LRRK2 Ser910/Ser935 phosphorylation in mouse tissues. The class given is in vivo. The following applies: intraperitoneal 100 mg/kg, normal mice.
LRRK2, sequence (Q5S006 whole entry): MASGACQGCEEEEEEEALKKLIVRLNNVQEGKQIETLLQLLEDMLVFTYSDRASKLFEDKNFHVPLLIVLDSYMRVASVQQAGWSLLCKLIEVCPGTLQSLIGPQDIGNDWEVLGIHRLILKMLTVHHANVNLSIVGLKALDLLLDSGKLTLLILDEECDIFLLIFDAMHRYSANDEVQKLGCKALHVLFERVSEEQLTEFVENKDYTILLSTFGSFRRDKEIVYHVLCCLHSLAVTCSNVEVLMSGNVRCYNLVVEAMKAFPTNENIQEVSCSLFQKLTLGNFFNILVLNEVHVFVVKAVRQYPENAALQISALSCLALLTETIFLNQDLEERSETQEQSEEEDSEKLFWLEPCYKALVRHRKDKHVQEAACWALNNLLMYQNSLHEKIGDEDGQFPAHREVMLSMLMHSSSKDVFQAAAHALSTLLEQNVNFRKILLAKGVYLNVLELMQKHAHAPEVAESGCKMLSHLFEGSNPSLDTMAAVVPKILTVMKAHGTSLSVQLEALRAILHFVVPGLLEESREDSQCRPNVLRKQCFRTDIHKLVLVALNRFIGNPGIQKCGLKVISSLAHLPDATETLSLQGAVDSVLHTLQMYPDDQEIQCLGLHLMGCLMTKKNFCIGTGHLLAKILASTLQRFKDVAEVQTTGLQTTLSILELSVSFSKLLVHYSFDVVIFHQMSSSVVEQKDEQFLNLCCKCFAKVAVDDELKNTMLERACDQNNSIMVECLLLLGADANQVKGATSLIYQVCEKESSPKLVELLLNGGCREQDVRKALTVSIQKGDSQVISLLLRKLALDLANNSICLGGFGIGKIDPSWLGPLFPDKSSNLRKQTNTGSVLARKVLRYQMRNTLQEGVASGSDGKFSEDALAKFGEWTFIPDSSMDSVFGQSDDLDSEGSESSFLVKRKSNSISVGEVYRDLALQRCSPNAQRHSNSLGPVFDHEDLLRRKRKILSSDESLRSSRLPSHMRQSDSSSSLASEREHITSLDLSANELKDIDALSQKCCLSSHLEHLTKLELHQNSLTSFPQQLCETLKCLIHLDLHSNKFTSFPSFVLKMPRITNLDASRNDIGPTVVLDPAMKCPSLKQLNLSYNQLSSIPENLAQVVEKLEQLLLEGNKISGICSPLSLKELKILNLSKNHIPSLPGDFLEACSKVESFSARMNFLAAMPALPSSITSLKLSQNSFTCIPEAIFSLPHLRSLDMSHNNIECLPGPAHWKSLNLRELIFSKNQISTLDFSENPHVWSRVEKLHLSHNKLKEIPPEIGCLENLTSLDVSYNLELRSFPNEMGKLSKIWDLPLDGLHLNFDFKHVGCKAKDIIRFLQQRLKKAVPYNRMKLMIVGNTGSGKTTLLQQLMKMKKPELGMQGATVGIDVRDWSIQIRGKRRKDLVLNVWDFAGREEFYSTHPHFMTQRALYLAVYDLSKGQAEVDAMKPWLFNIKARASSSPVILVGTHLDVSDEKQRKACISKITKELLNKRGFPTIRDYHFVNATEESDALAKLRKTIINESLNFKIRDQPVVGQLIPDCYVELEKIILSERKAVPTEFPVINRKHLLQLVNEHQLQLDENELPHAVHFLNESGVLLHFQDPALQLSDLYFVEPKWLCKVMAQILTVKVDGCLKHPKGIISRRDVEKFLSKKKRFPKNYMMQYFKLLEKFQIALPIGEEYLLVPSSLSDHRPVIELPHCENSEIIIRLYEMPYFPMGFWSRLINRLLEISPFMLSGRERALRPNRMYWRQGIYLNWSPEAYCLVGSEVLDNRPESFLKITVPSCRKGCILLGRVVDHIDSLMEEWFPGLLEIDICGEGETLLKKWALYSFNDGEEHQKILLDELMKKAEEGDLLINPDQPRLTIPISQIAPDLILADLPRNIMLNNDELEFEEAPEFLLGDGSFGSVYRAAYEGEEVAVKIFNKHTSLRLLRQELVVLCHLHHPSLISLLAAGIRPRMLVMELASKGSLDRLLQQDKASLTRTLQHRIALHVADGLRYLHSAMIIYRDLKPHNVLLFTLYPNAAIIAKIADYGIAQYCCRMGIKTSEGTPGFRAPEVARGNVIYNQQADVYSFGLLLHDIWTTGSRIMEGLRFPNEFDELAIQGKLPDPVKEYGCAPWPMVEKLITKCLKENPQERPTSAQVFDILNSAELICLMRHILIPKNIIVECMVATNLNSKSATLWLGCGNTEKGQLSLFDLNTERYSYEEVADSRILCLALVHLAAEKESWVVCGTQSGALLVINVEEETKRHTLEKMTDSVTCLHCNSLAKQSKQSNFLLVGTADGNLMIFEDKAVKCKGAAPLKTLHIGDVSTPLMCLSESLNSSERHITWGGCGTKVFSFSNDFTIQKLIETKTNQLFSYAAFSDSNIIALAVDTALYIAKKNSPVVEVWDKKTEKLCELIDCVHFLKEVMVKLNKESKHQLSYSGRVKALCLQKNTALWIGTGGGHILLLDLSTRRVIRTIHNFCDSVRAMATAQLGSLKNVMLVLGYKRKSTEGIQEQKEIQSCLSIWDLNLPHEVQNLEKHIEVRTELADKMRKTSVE

ALK, sequence (Q9UM73 19-1620, species assumed): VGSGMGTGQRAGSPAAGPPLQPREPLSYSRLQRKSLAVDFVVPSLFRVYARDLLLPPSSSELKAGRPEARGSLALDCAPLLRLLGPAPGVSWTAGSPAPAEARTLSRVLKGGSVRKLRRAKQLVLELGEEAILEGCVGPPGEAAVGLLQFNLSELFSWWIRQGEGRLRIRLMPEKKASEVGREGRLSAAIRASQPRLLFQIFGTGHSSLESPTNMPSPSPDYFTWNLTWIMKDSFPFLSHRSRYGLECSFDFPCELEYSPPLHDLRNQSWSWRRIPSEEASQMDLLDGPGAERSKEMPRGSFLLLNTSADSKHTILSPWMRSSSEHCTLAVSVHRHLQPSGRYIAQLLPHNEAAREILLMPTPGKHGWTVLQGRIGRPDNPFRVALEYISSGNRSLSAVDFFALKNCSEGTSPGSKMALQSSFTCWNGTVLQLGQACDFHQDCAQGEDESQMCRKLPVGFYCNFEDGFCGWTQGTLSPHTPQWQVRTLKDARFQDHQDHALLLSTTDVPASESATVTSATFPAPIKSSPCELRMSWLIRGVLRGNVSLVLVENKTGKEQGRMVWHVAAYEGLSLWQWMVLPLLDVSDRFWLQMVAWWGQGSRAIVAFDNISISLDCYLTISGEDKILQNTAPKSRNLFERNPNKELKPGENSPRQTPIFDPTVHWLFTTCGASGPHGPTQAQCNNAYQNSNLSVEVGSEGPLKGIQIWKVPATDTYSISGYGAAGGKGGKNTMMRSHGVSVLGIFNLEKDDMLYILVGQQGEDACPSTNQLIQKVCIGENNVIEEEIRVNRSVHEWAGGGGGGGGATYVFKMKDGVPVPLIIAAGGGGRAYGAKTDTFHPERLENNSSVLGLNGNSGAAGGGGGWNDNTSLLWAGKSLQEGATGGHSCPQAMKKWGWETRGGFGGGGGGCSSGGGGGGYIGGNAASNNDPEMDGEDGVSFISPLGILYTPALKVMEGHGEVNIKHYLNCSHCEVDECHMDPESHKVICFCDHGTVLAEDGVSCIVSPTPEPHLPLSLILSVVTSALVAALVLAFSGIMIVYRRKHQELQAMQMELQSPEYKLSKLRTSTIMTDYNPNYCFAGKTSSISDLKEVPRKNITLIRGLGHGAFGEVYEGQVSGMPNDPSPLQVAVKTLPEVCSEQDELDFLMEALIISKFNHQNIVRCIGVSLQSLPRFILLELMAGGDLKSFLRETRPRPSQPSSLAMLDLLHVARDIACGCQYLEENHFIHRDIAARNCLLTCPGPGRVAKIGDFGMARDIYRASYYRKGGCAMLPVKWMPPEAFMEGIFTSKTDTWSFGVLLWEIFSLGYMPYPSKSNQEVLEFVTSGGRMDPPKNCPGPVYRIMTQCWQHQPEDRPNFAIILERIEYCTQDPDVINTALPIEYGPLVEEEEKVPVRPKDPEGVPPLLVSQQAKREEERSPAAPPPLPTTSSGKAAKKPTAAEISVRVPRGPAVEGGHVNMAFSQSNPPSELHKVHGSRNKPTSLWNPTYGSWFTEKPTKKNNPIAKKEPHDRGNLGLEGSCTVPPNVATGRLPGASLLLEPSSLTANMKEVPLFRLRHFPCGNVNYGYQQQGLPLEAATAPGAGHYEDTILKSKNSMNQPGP

With `O=C(Nc1cccnc1)c1cc(-c2ccnc(F)c2)ccc1OCc1ccccc1` [GSK2578215A, 2-(benzyloxy)-5-(2-fluoropyridin-4-yl)-N-(pyridin-3-yl)benzamide], the “concentration inducing dephosphorylation of Ser910 and 935” value on GFP-LRRK2[A2016T] is 1 to 3 µM. The ambit score on ALK and at FLT3(D835Y) was below 10 in each case. This compound also displayed a clearance in series [1] of 1.33 L/h/kg. In addition, the inhibition at 10 µM on smMLCK was above 50%. The IC50 in series [2] was around 0.01 µM. At LRRK2 (brain), the “inhibition of LRRK2 Ser910 or Ser935 phosphorylation in brain” value is “no inhibition; also recorded: failed to induce significant inhibition”. Further, on LRRK2 (kidney), the “Ser910 and Ser935 dephosphorylation of LRRK2 in kidney” value was “complete Ser910 and Ser935 dephosphorylation”. The “Ser910 and Ser935 dephosphorylation of LRRK2 in spleen” value at LRRK2 (spleen) was “complete Ser910 and Ser935 dephosphorylation”.
